In patent EP2992885A2, “METHOD FOR INHIBITING A LIVER DISEASE” (priority 2014, dated 2016):
Where a name gives a salt, the structure may show the parent alone.

Legend:
[1] = tested on: ROCK II; assay: ROCK II expression in HepG2 cells; assay type: cell-based
Protocol: HepG2 cells were treated with various concentrations of drugs for 24 hours. Reactions were terminated by washing twice with cold PBS, and the cells were then harvested. Proteins in the whole-cell lysate were homogenized in an ice-cold lysis buffer and a protease inhibitor (Sigma-Aldrich, St. Louis, MO, U.S.A.). The homogenate was centrifuged at 90, 000 g for 15 minutes at 4°C, and supernatant was recovered as the total cellular protein. Cytosolic and membrane fractions of HepG2 cells were prepared using a CNM (Cytosol Nuclear Membrane) compartment protein extraction kit (BioChain Institute Inc., Hayward, CA, U.S.A.) according to the manufacturer's instructions. All of the fractionated protein solutions were stored at -80°C until analysis. To measure the expression levels of proteins by drugs, the total cell protein was extracted after incubation with treatments for 24 hours and then Western blotting analysis was performed as described previously.
To confirm that RhoA antagonist C3 exoenzyme (5 µg/ml) and ROCK antagonist Y27632 (10 µM), dissolved in 10% popyleneglycol, can inactivate_the expression of ROCK II, they were added to cells in culture for 24 hours, respectively, to measure the expression of ROCK II and related expressions of PPARγ and ABCA-1 in HepG2 cells.

[2] = tested on: mice fed with HFD; assay: HFD-fed mice, 8 weeks: serum and liver lipid levels, body weight, food intake; assay type: in vivo, C57BL/6J male mice; design: TG / Tot. chol. / HDL chol. / LDL chol.: unit not given here; conditions: for HDL (HDL cholesterol) / LDL (LDL cholesterol) / TG of liver (Triacylglycerol) / TG in serum (Triacylglycerol): HFD for 8 weeks; for TG in serum (Triacylglycerol): means±SE; for HDL chol. / LDL chol. / TG / Tot. chol.: Table 2, HFD mice, unit not given in Table 2 (Table 1 gives mg/dl)
Protocol: (§1) During the 2 month experiments, mice fasted for one night before the experiment was changed from a standard diet (STD) to a HFD and then the mice were randomly divided into 5 groups, including 2 control and 3 treatment groups. Six mice were used in each group. The control mice received either STD or HFD and the protection group was fed HFD with KMUP-1 HCl (2.5 and 5 mg/kg/day), simvastatin (5 mg/kg/day) or a target drug administered by gavage to assess weight gain followed by biochemical analysis. Liver from the protection group supplemented with KMUP-1 HCl (1 mg/kg/day) were used to determine the HMG CoA reductase expression.
Within 2 months, the 3 day food intake average for each animal was measured. The weight gain and plasma lipid levels of each group were determined and compared to the non-treatment control group. […] Agents used in the assays were obtained from Merck & Co. (Kenilworth, NJ, U.S.A.). Triglyceride (TG), total cholesterol, HDL cholesterol and LDL cholesterol in mouse serum were measured by methods used in the clinic. To measure the hepatic TG, isolated liver were cut into small chips.

[3] = tested on: HMG CoA reductase; assay: HFD-induced HMG CoA reductase expression in liver, 8 weeks; assay type: in vivo, mice; conditions: HFD 8 weeks; KMUP-1 HCl 2.5, 5 mg/kg; simvastatin 5 mg/kg, by gavage
Protocol: as §1, with “Liver from the protection group supplemented with KMUP-1 HCl (1 mg/kg/day) were used to determine the HMG CoA reductase expression.” left out
The obtained protein extract was boiled to a ratio of 4:1 with a sample buffer (Tris 100 mM, pH 6.8, glycerol 20%, SDS 4% and bromophenol blue 0.2%).
The blot was then incubated with anti-mouse or anti-goat IgG linked to alkaline phosphatase (1:1000) for 1 hour.

8-(p-chloro-phenylthio)guanosine-3,5-monophosphorothioate [Rp-8-pCPT-cGMPS]
ROCK II expression (Fig. 24B) ([1]; HepG2, 10µM cGMP antagonist alone): increased

CCC(C)(C)C(=O)O[C@H]1C[C@@H](C)C=C2C=C[C@H](C)[C@H](CC[C@@H]3C[C@@H](O)CC(=O)O3)[C@H]21 [simvastatin, reference compound]
HDL (HDL cholesterol) ([2]; 5mg/kg by gavage): 103.2 ± 2.5 mg/dL
LDL (LDL cholesterol) ([2]; 5mg/kg by gavage): 15.3 ± 1.3 mg/dL
TG of liver (Triacylglycerol) ([2]; 5mg/kg by gavage): 35.5±2.** mg/dl
TG in serum (Triacylglycerol) ([2]; 5mg/kg by gavage): 82.7 ± 6.3 mg/dL

Cn1c(=O)c2c(ncn2CCN2CCN(c3ccccc3Cl)CC2)n(C)c1=O [KMUP-1, 7-[2-[4-(2-chlorophenyl)piperazinyl]ethyl]-1,3-dimethyl xanthine]
HDL (HDL cholesterol) ([2]; 2.5mg/kg by gavage): 103.6 ± 4.2 mg/dL
LDL (LDL cholesterol) ([2]; 2.5mg/kg by gavage): 14.2 ± 1.4 mg/dL
TG of liver (Triacylglycerol) ([2]; 2.5mg/kg by gavage): 28.4 ± 3.6 mg/dL
TG in serum (Triacylglycerol) ([2]; 2.5mg/kg by gavage): 74.5 ± 5.1 mg/dL
HDL (HDL cholesterol) ([2]; 5mg/kg by gavage): 118.3 ± 5.7 mg/dL
LDL (LDL cholesterol) ([2]; 5mg/kg by gavage): 14.2 ± 2.2 mg/dL
TG of liver (Triacylglycerol) ([2]; 5mg/kg by gavage): 26.12 ± 3.1 mg/dL
TG in serum (Triacylglycerol) ([2]; 5mg/kg by gavage): 72.7 ± 4.7 mg/dL

Cn1c(=O)c2c(ncn2CCN2CCN(c3ccccc3Cl)CC2)n(C)c1=O [KMUP-1 HCl, 7-[2-[4-(2-chlorophenyl)piperazinyl]ethyl]-1,3-dimethylxanthine HCl complex]
HDL chol. ([2]; Dose 2.5 mg/kg): 103.6± 4.2
LDL chol. ([2]; Dose 2.5 mg/kg): 14.2± 1.4
TG ([2]; Dose 2.5 mg/kg): 74.5± 5.1
Tot. chol. ([2]; Dose 2.5 mg/kg): 133± 5.1
HDL chol. ([2]; Dose 5 mg/kg): 118.3± 5.7
LDL chol. ([2]; Dose 5 mg/kg): 14.2± 2.2
TG ([2]; Dose 5 mg/kg): 72.67± 4.7
Tot. chol. ([2]; Dose 5 mg/kg): 125.5± 9.8
HFD-induced downregulation of HMG CoA reductase expression in liver [3]: significantly reversed

C[C@@H](N)[C@H]1CC[C@H](C(=O)Nc2ccncc2)CC1 [Y27632]
ROCK II expression (Fig. 24A) ([1]; HepG2, 24 hours, C3 exoenzyme 5 µg/ml, Y27632 10 µM): reduced
